One data set concerns the target α-glucosidase (Saccharomyces cerevisiae, UniProt P53341). Put plainly: Enzyme kinetic studies (Lineweaver-Burk and Dixon plots). Format: biochemical. The note with it: α-glucosidase. The procedure: The Lineweaver-Burk plot of 1/V versus 1/[S] in the presence of different concentrations of compound 2a in the case of α-glucosidase gave a series of straight lines that intersect on the x-axis (Figure 3a). […] The compound probably binds to the active site and other allosteric sites on the enzyme.
Enzyme kinetics studies were performed on compounds 2a and 3e with increasing inhibitor and substrate concentrations. In the experimental procedure, inhibitors concentrations of 0.1, 0.5, 1, 2.5 µM, and final substrate concentration were 0.1, 0.5, 1 and 5 mM were used. 5 μL of the inhibitor and 2 μL of the enzyme (α-glucosidase) were added to each well of the 96-well plate. The reaction was incubated for 20 min at room temperature. 18 μL of the substrate, PNPG (4-nitrophenyl α-D-glucopyranoside) was then added and absorbance readings recorded after every 2 min at wavelength of 400 nm using a Varioskan flash microplate spectrophotometer reader. Lineweaver-Burk plot (the inverse of velocity (1/v) against the inverse of the substrate concentration (1/[S]) were used to determining the type of inhibition, while the inhibitor constant was obtained from the Dixon plot (the inverse of velocity (1/v) against concentration of inhibitor at each substrate concentration)

The target of the next data set is α-amylase. Put plainly: α-Amylase inhibition assay (α-Amylase Inhibitor Screening Kit). Format: biochemical. The conditions noted are these: mean ± SD of three independent experiments. On the procedure: The α-amylase assay was performed in triplicate using a 96-well plate following the procedure by the manufacturer as outlined in the α-Amylase Inhibitor Screening Kit (Catalog No. K482; Bio Vision). […] For inhibitor control (10 µL of α-amylase inhibitor and 40 µL of assay buffer were added to 3 wells), enzyme control (50 µL of assay buffer was added to three wells) and 50 µL of the test compounds were added into the remaining wells. A solution of α-amylase enzyme (50 µL) prepared by adding 490 µL of assay buffer to 10 µL of α-amylase enzyme was added to each of the wells containing the reaction mixture to initiate the reaction. The plate was incubated for 10 min at room temperature in the dark. Five different absorbance readings were recorded for each triplicate run at a wavelength of 405 nm using Varioskan flash microplate spectrophotometer (Thermo Scientific, Waltham, MA, USA). The IC50 and SD values were calculated using graph pad prism.

The subject of a further data set is A549 cells. In words: MTT cytotoxicity assay on A549 cells. Type of data set: cell-based, human. The conditions noted are these: human, A549 cells, 24 h treatment. The procedure: (§1) Metabolic diseases such as diabetes require a stable long-term therapy accompanied by well tolerated and low toxicity, and this encouraged us to evaluate the safety profile of 2a and 3e as potential antidiabetic agents at least in vitro. The compounds were evaluated for cytotoxicity against the normal monkey kidney cells (Vero cells) and the adenocarcinomic human epithelial (A549) cell line using the 3-(4,5-dimethylthiazol-2-yl)-2, 5-diphenyltetrazolium (MTT) assay.
(§2) The cytotoxicity activity of compounds 2a and 3e was evaluated against doxorubicin (positive control) using the 3-(4,5-dimethylthiazol-2-yl)-2,5-diphenyltetrazolium bromide (MTT) assay following a modification of a literature method by Mosmann. The Vero and A549 cells were maintained in Dulbecco′s modified Eagle′s medium (DMEM; Gibco) supplemented with 10% Fetal bovine serum (FBS) and 1% penicillin/streptomycin in culture flasks and incubated at 37 °C in 5% CO2. When the cells reached 85% confluency, they were detached using 2% trypsin. Cell count was performed using a handheld automated cell counter (Scapter 3.0™, Merck). The cells were seeded at 1 × 10^5 cells/well and incubated overnight to allow cell attachment. After 24 h, the cells were treated with different concentrations (0, 2.5, 5, 10, 25, 50, 100 µM) of the test compounds and the reference stand. The cells were incubated for 24 h followed by treatment with 20 µL of MTT solution (5 mg/mL). After 4 h incubation period, DMSO (100 µL) was added to each well to dissolve the formazan crystals. Five absorbance readings were recorded at 517 nm using Varioskan flash microplate spectrophotometer reader.

The next data set concerns Vero cells. Put plainly: MTT cytotoxicity assay on Vero cells. Format: cell-based. The conditions noted are these: monkey, 24 h treatment. On the procedure:
as §1
as §2, with “After 24 h, the cells were treated with different concentrations (0, 2.5, 5, 10, 25, 50, 100 µM) of the test compounds and the reference stand. The cells were incubated for 24 h followed by treatment with 20 µL of MTT solution (5 mg/mL). After 4 h incubation period, DMSO (100 µL) was added to each well to dissolve the formazan crystals.” left out
Background: Formazan colour is commonly taken as a measure of viable cells.

The nature of data set [1]: NO free radical scavenging assay (sodium nitroprusside, Griess reaction). The conditions noted are these: mean ± SD of three independent experiments. From the text: (§3) Reduced or lack of antioxidant activity of these compounds was attributed to the presence of intramolecular N-H···O hydrogen bond between amino and kenone group of the 2-aminochalcones and their sulfanamido derivatives which is envisaged to deactivate the unsaturated moiety. […] A combination of the styryl and the electrophilic α,β-unsaturated carbonyl arms on the same molecular framework encouraged us to evaluate the test compounds for antioxidant properties through the DPPH and NO radical scavenging assays. […] Compound 2a has potential to inhibit both α-glucosidase and α-amylase activities, and to reduce oxidative stress. […] The observed free radical scavenging activities of these molecular hybrids is presumably due to the presence of styryl arm on the intramolecularly hydrogen bonded 2-aminochalcone scaffold.
Nitric oxide was generated from sodium nitroprusside and measured by Griess’ reaction following the literature method. The experiment was done in triplicate with ascorbic acid (vitamin C) used as a positive control for the assay. In a 96 well plate, 5 μL of the test compounds (0.1, 0.5, 1.0, 5.0 and 10.0 μM in methanol) or the positive control were mixed with 5 μL of 10 mM sodium nitroprusside prepared in phosphate buffered saline (pH = 7.4) and allowed to incubate at room temperature for 2.5 h. Afterwards, 30 μL of the Griess reagent (a mixture of 0.2% N-(1-naphthyl)ethylenediamine dihydrochloride and 2% sulfanilamide in […]) was added to each well and the mixtures were and allowed to stand at room temperature for 30 min. Five absorbance readings were recorded at 546 nm using Varioskan flash microplate spectrophotometer reader.
Background: Nitrite, measured by Griess reagent, commonly stands in for NO production.

Data set [2] deals with yeast α-glucosidase from Saccharomyces cervisiae (Saccharomyces cerevisiae, UniProt P53341). Put plainly: biochemical. The conditions noted are these: mean ± SD of three independent experiments; pH 6.8, 37 °C; read-out: IC50 (SD) α-Glucosidase. The procedure:
All the tests and analyses were performed in triplicates following a modified published protocol described in our previous study. […] 2.5, 5, 10, 25 and 50 µM. α-Glucosidase solution (0.48 u/mL, 20 µL), phosphate buffer (100 mM, pH 6.8; 30 µL) and the test sample (20 µL) as well as the reference standard were added in the designated wells, and the reaction mixtures were incubated at 37 °C for 10 min. 2 mM p-nitrophenyl-α-D-glucopyranoside (20 µL) was added to each of the wells containing reaction mixture to initiate the reaction. The reaction was pre-incubated for 30 min at 37 °C. The reaction was stopped by the addition of 20 μL of a solution of sodium carbonate (200 mM) to each well. Five absorbance readings were recorded for each triplicate run at a wavelength of 400 nm using Varioskan flash microplate spectrophotometer (Thermo Scientific, Waltham, MA, USA). The average values obtained from the readings were used to determine the IC50 and standard deviation values. The values were calculated by the nonlinear regression analysis and expressed as the mean SD of three distinct experiments using Graph Pad Prism software.

Data set [3] is described as follows: DPPH radical scavenging assay. The note with it: free radical scavenging; mean ± SD of three independent experiments.
Text: as §3
The antioxidant activities of the test compounds against ascorbic acid (Sigma Aldrich, Saint Louis, Missouri, USA) as a positive control were evaluated using 2,2-diphenyl-1-picrylhydrazyl (DPPH) radical scavenging assay developed by Zhu et al. as described in our previous study. Triplicate solutions (20 µL) of the test compounds and ascorbic acid in DMSO (final concentrations: 5, 10, 25, 50, and 100 µM) were added into each designated well of a 96-well plate. A solution of 0.20 mM DPPH (20 µL) in methanol was added to each well, and the 96-well plate was wrapped with aluminum foil and incubated in the dark for 45 min. Five absorbance readings were recorded at 512 nm using Varioskan flash microplate spectrophotometer reader. The average values obtained from the absorbance readings were used to determine the IC50 and standard deviation values.
(In general: Loss of DPPH colour is used to gauge radical scavenging.)

α-glucosidase, sequence (P53341 whole entry): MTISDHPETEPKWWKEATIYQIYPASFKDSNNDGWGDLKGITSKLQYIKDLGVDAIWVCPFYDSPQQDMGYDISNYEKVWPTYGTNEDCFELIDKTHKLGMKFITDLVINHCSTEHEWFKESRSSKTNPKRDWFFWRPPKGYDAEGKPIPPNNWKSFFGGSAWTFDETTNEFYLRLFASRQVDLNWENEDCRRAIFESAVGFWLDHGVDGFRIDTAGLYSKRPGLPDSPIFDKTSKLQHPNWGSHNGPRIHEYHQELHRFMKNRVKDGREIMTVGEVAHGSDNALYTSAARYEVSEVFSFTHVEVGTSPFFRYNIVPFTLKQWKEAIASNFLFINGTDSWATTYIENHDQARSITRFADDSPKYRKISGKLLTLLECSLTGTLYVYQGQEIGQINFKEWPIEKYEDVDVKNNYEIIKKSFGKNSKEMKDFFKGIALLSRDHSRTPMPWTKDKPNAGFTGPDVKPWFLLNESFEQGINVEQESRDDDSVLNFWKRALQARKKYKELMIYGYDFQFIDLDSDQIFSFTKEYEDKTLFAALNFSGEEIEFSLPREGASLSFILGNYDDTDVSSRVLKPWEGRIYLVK
yeast α-glucosidase from Saccharomyces cervisiae, sequence (P53341 whole entry): as above

For orientation: Ki means the equilibrium dissociation constant of an inhibitor or competing ligand from its target. As a reminder, the melting point is the temperature, or range, at which the solid turns liquid. For orientation: IC50 means the point on the concentration scale where inhibition reaches its midpoint. Turning to `CC(=O)c1cc(/C=C/c2ccccc2)ccc1N` [Compound 2a, (E)-1-(2-Amino-5-styrylphenyl)ethan-1-one], the melting point was 119 to 120 °C. In addition, the inhibition constant Ki at α-glucosidase (PNPG substrate, read-out: Ki (Dixon plot)) amounted to 0.3 ± 0.04 µM. Besides, on α-glucosidase (Lineweaver-Burk and Dixon plots), the mode of inhibition result is “non-competitive mode of inhibition”. Besides, the half-maximal inhibitory concentration (IC50) against α-amylase is 2.3 ± 0.2 µM. 65.7 ± 0.14 µM corresponded to half-maximal inhibition with A549 cells (IC50 at 24 h). For the same compound, the 50% inhibitory concentration (IC50) at 24 h in the data set on Vero cells is 164.6 ± 0.59 µM. For the same compound, the IC50 in data set [1] is 8.3 ± 0.22 µM. Further, the IC50 in data set [2] worked out at 5.4 ± 0.1 µM. For the same compound, the IC50 in data set [3] turned out to be 7.1 ± 0.32 µM.

Source of the values: publication PMC8125089, “Synthesis, Structure, Carbohydrate Enzyme Inhibition, Antioxidant Activity, In Silico Drug-Receptor Interactions and Drug-Like Profiling of the 5-Styryl-2-Aminochalcone Hybrids” (Molecules, 2021).
